Patent US6001810A, “Methods for treating retroviral infection” (Eli Lilly and Company, priority 1990, dated 1999)
In brackets after ≈: the same amount, converted by molar mass. Several values for one entry are separate records, joined by “and”; a condition that tells them apart may be missing. Identical values can stand only once.

Key:
[1] = test system: MLV; assay: MLV XC Plaque Reduction Assay - Virus Yield; format: cell-based, Murine Leukemia Virus
Description: (§1) About 3 to 5×10^3 SC-1 cells (available from the American Type Culture Collection, Rockville, Md. under the accession number ATCC CRL-1404) per well of a 96-well microtiter plate were seeded in minimal essential medium supplemented with 5% fetal bovine serum, penicillin (150 U/ml), Streptomycin (150 μg/ml) and polybrene (2 μg/ml), then infected with Mo-MuLV (Multiplicity of Infection=10 PFU/cell) the next day. The virus was allowed to adsorb to the cells for 1 hour, then medium containing serial dilutions of P-7, P-9 or medium alone was added to the cells. Pepstatin A ([…]-Val-Val-Statine-Ala-Statine) and AZT (3'-Azido-3'-deoxythymidine) were also added as controls. After incubation for 5 days (when cells were confluent) the SC-1 cells were UV irradiated for 10 seconds and 5 to 8×10^4 XC cells (ATCC CCL-165) per well were added. Generally, about two additional days of incubation were required to obtain full virus-induced cytopathic effect.
The assay described above was also preferred to determine the virus yield. In this experiment, the supernatents were removed from the SC-1 cells four days after infection and tested for MLV titers, using the XC-plaque assay as previously described.

[2] = test system: CEM cells; format: cell-based
Description: (§2) Quantitative evaluation of the viral inhibition were performed on the T-cell lymphoblastoid cell lines MT-2 (Harada et al., 1985, Science 229:563-566) and CEM (Nara and Fischinger, 1988, Nature 332:469-470). The cells were infected with the HTLV-IIIB strain of HIV-1 from the supernatant fluid of infected human T-lymphocyte cell line H9 (Popovic, M. et al., 1984, Science 224:497-500). Each of these three cell lines are publicly available from the National Institutes of Health (NIH) AIDS Research and Reference Reagent Program. The H9/HTLC-IIIB cell line is available under catalogue number 231, while CEM cell line is available under catalogue number 117 and the MT-2 cell line is available under the catalogue number 237. MT-2 and CEM cells were grown in RPMI 1640 medium supplemented with 10% (v/v) fetal calf serum, 100 U/ml penicillin, 100 μg/ml streptomycin and 25 mM HEPEs buffer. H9 cells were grown in the same medium except 20% fetal calf serum was used. The peptides were diluted in the medium used for MT-2 and CEM cells. Cell cultures were maintained in disposable tissue culture labware at 37° C. in a humidified atmosphere of 5% CO2 in air.
(§3) The inhibitors were dissolved in DMSO at 40 mg/ml or sterile water at 2 mg/ml, then dilutions were made in medium. The dilutions were added to micro-titer plates in 100 μl/well aliquots so that the high drug concentration for each screen was 100 μg/ml after the addition of cells to the well.
(§4) Susceptible MT-2 and CEM cells were grown and the cell population determined by a trypan blue viable cell count. The desired total number of cells were placed in a sterile, disposable 50 ml conical centrifuge tube and virus was added to give an MOI (Multiplicity of Infection) of 0.03 TCID50 /cell (Tissue Culture Infectious Dose) on MT-2 cells and approximately 0.12 TCID50 /cell on CEM cells. Fresh medium was added to adjust the cell density to 1×10^5 cells/ml, then the virus-cell suspension was incubated at 37° C. for 1 to 2 hours until plating. Uninfected controls cell were prepared in the same manner but without the addition of virus. Infected and uninfected cells were added to plates in 100 μl/well aliquots to give a starting cell number of 1×10^4 cells/well. The plates were incubated for seven days in a humidified atmosphere of 5% CO2 in air.
Reagents for colorimetric evaluation of cell viability were prepared by mixing the tetrazolium reagent, XTT, and phenazine methosulfate (PMS) to final concentrations of 200 μg/ml and 0.02 mM, respectively. Fifty microliters of the XTT-PMS solution was added to each well of the microtiter plates, then the plates were incubated in the CO2 incubator for another four hours. The lids were removed from the plates and replaced with adhesive plate sealers. The plates were read with the sealers in place in a Vmax Plate Reader® at 450 nm and 650 nm. The cytopathic effect (CPE) and percentage of cell viability were then calculated.
The activity and cytotoxicity of several other peptides were also assayed in CEM cells using the same procedure as described above. These assays also included toxicity and activity levels of both 25% and 50%.

[3] = test system: HTLV-IIIB strain of HIV-1; assay: Inhibition of HIV-1 cytopathic effect in CEM cells (XTT); format: cell-based; conditions: for IC25 (concentration that reduced CPE by 25%): Table V first column
Description: as §2, §3, §4
Reagents for colorimetric evaluation of cell viability were prepared by mixing the tetrazolium reagent, XTT, and phenazine methosulfate (PMS) to final concentrations of 200 μg/ml and 0.02 mM, respectively. […] The plates were read with the sealers in place in a Vmax Plate Reader® at 450 nm and 650 nm. The cytopathic effect (CPE) and percentage of cell viability were then calculated. […]

[4] = test system: complex of Friend's Spleen-Forcus Virus (Fr. SFFV) and Friend's Murine Leukemia Virus (F. MLV); assay: In vivo inhibition of Friend Virus Complex in DBA/2 mice; parameters: Spleen / Inhibition % (spleen): dose or concentration left out as unconfirmed; conditions: individual infected DBA/2 mice
Description: Formulations of peptides P-9 and P-7 were prepared for injection into DBA/2 mice. The formulations were prepared by dissolving the purified peptides in Emulphor™ EL620 which was purchased from the GAF Chemical Corporation, 1361 Alps Row, Wayne, N.J., 07470. The drugs were injected intraperitoneally one hour before the mice were infected with a complex of Friend's Spleen-Forcus Virus (Fr. SFFV) and Friend's Murine Leukemia Virus (F. MLV). These viruses ordinarily cause polycythermia (elevated levels of red blood cells) and splenomegaly (enlargement of spleen) within two to three week post-infection. The mice were injected twice daily with the inhibitor formulation for twenty days after the infection.
*Drugs were dissolved in Emulphor ™, injected IP one hour before
infection, then twice daily for 20 days.
^a Titers of Fr.MLV in the spleens (supernatents of 10% homogenates)
were determined by XC plaque assay.

[5] = test system: Mo-MuLV; assay: Moloney Murine Leukemia Virus Assay, CPE inhibition in SC-1/XC cells; format: cell-based; parameters: key: 4+(>90%); 3+(>60%); 2+(>40%); 1+(>20%); -(Negative)
Description: as §1

[6] = test system: MT-2 cells; format: cell-based
Description: as §2, §3, §4
(§5) Reagents for colorimetric evaluation of cell viability were prepared by mixing the tetrazolium reagent, XTT, and phenazine methosulfate (PMS) to final concentrations of 200 μg/ml and 0.02 mM, respectively. […] The plates were read with the sealers in place in a Vmax Plate Reader® at 450 nm and 650 nm. The cytopathic effect (CPE) and percentage of cell viability were then calculated.

[7] = test system: HTLV-IIIB strain of HIV-1; assay: Inhibition of HIV-1 cytopathic effect in MT-2 cells (XTT); format: cell-based; conditions: 7 days
Description: as §2, with “H9 cells were grown in the same medium except 20% fetal calf serum was used. The peptides were diluted in the medium used for MT-2 and CEM cells. Cell cultures were maintained in disposable tissue culture labware at 37° C. in a humidified atmosphere of 5% CO2 in air.” left out
Susceptible MT-2 and CEM cells were grown and the cell population determined by a trypan blue viable cell count. […]
as §5

Which results are given for `Cc1cn([C@H]2C[C@H](N=[N+]=[N-])[C@@H](CO)O2)c(=O)[nH]c1=O` [AZT, 3'-Azido-3'-deoxythymidine]?
Yield ([1]; 3.125 ng/ml): 2.9 × 10^4 PFU/ML; Yield ([1]; 6.25 ng/ml): 80 PFU/ML; Yield ([1]; 12.5 ng/ml): < 10 PFU/ML; % Inhibition (virus yield) ([1]; 25 ag/ml): > 99%; Yield ([1]; 25 ag/ml): < 10 PFU/ML; inhibition at 0.003125 µg/mL ([1]; Murine leukemia virus, 3.125 ng/ml): 98%; inhibition at 0.00625 µg/mL ([1]; Murine leukemia virus, 6.25 ng/ml): > 99%; inhibition at 0.0125 µg/mL ([1]; Murine leukemia virus, 12.5 ng/ml): > 99%; IC25 (Table V) [2]: > 1.0 µg/mL; TC50 (concentration that reduced cell viability by 50%) [2]: > 1.0 µg/mL; IC50 ([3]; Human immunodeficiency virus 1, IIIB, CCRF-CEM, Table V, read-out: IC50 (concentration that reduced CPE by 50%)): < 0.0032 µg/mL; IC25 (concentration that reduced CPE by 25%) [3]: < 0.0032 µg/mL; Maximum inhibition reached (CPE) ([3]; inhibition decreased as drug concentration increased): 60%; Inhibiton % (virus titer) ([4]; 100 pg IP twice daily for 20 days): > 99% and 95%; Virus Titer (Fr.MLV in the spleens, XC plaque assay) ([4]; 100 pg IP twice daily for 20 days, supernatents of 10% homogenates): 500 PFU/ml and 20,000 PFU/ml; Spleen ([4]; IP one hour before infection, then twice daily for 20 days): 0.17 gm and 0.21 gm; Inhibition % (spleen) ([4]; IP twice daily for 20 days): 85% and 81%; CPE inhibition score ([5]; .0004 μg/ml): -; CPE inhibition score ([5]; .0008 μg/ml): -; CPE inhibition score ([5]; .003 μg/ml): 2+ (2+(>40%)); CPE inhibition score ([5]; .006 μg/ml): 3+ (3+(>60%)); CPE inhibition score ([5]; .012 μg/ml): 4+ (4+(>90%)); CPE inhibition score ([5]; .015 μg/ml): 1+ (1+(>20%)); CPE inhibition score ([5]; .025 μg/ml): 4+ (4+(>90%)); CPE inhibition score ([5]; .05 μg/ml): 4+ (4+(>90%)); CPE inhibition score ([5]; .1 μg/ml): 4+ (4+(>90%)); CPE inhibition score ([5]; .2 μg/ml): 4+ (4+(>90%))

`Nc1ccn([C@H]2CC[C@@H](CO)O2)c(=O)n1` [DDC, 2', 3Dideoxycytidine] was tested. Which “MTC50 (minimum cytotoxic drug concentration that reduces cell viability to 50%)” value [6] did it give?
The value was greater than 10 µg/mL.

What about the “IC25 (Table V)” value [2] of the same molecule?
The value was 0.04 µg/mL (≈ 0.189 µM).

What about the “TC50 (concentration that reduced cell viability by 50%)” value [2] of the same molecule?
The value was 0.8 µg/mL (≈ 3.79 µM).

What about the “IC25 (concentration that reduced CPE by 25%)” value [3] of the same molecule?
The value was 0.0032 µg/mL (≈ 0.0152 µM).

And the “ID50 (minimum drug concentration that inhibited CPE by 50%)” value [7]?
Its value is 0.11 µg/mL and 0.10 µg/mL.
